Laboratory results: patent US12678511B2, “Peptide and use thereof” (Kansai Medical University Educational Corgoration, priority 2019, dated 2026)
“Also recorded” adds a separate entry of the source. Peptide text beside a SMILES is read from it.

What was measured:
hMSC [1] = experiment: Intracellular localization of [FAM]-tandem MSCPP106 in hMSC; type: cell-based, human; conditions: [FAM]-labelled, 4 μM, fluorescence maintained in lysosomes, FIG. 6
Procedure: Next, the intracellular localization of [FAM]-tandem MSCPP106 was investigated. Specifically, hMSC were inoculated into a 24-well plate to achieve 4×10^4 cells/well, and four hours after the inoculation, the medium was replaced with an RPMI medium containing 10% FBS, and culturing was conducted for 60 hours. Following culturing, a medium (RPMI 1640 medium containing 10% FBS) containing 4 μM of [FAM]-tandem MSCPP106 was added to the hMSC and cultured for 24 hours. Following culturing, nuclear staining was conducted with Hoechst 33342 (excitation wavelength: 352 nm, fluorescence wavelength: 461 nm), lysosomes were also stained using LysoTracker (a registered trademark) RED DND-99 (a lysosome content marker, excitation wavelength: 555 nm, fluorescence wavelength: 584 nm), and the cultures were then observed using a phase difference/fluorescence microscope (magnification: 60×). In FIG. 6, “Merge” indicates a merged image of the FAM fluorescence image and the LysoTracker (a registered trademark) RED DND-99 fluorescence image.

[2] = tested on: cancer stroma, subcutaneous tumor (BxPC3 cells and DsRed2 hMSC); experiment: Absorption of [FAM]-tandem and [FAM]-tandem mut MSCPP106 into cancer stroma in scirrhous pancreatic cancer model mice; type: in vivo, mouse; conditions: [FAM]-labelled, 300 μg intravenous, 60 minutes after injection
Description: Next, in order to investigate the functional importance of the cysteine within the peptide sequence (positioned second from the N-terminus), a comparison was made of the absorption into cancer stroma of [FAM]-tandem MSCPP106 and [FAM]-tandem mut MSCPP106 (having a sequence in which the N-terminus is labeled with FAM, and having a mutation in which the side-chain —SH group of the cysteine second from the N-terminus has been methylated). With the exception of using cloned hMSC cells that constantly expressed DsRed2, the same method as Example 7 was used to obtain scirrhous pancreatic cancer model mice. Subsequently, the obtained scirrhous pancreatic cancer model mice were injected intravenously with [FAM]-tandem MSCPP106 or [FAM]-tandem mut MSCPP106 (300 μg in each case). In each case, the pharmacokinetics of the peptide 60 minutes after the intravenous injection were then analyzed by tissue analysis of the freshly dissected specimen of the peptide-administered mouse.
FIG. 9B is a series of fluorescent images of subcutaneous tumors in mice administered with [FAM]-tandem MSCPP106 or [FAM]-tandem mut MSCPP106 (magnification: 4×).
FIG. 9C is a series of fluorescent images of a subcutaneous transplanted tumor in a mouse administered with tandem MSCPP106 (magnification: 4×, 20× and 40×). […]

[3] = tested on: CAF of the cancer stroma, subcutaneous tumor; experiment: Absorption into CAF of cancer stroma in scirrhous cancer model mouse; type: in vivo; conditions: [FAM]-labelled, 300 μg intravenous, 30 minutes after injection, FIG. 8C
Procedure: Using the same method as Example 7, a scirrhous cancer model mouse was obtained. Subsequently, the obtained scirrhous cancer model mouse was injected intravenously with [FAM]-tandem MSCPP106 (300 μg). Subsequently, the pharmacokinetics of the peptide 30 minutes after the intravenous injection were analyzed by tissue analysis of the freshly dissected specimen of the peptide-administered mouse.
FIG. 8C is a series of phase difference microscope images and fluorescent images of the subcutaneous tumor. The upper two rows are images at a magnification of 20×, whereas the lower two rows are images at a magnification of 40×. Further, “Merge” represents merged images of each phase difference microscope image and each fluorescent image.

[4] = Degradation resistance in human plasma (MALDI-TOFMS); type: in vitro ADME; conditions: human plasma 50% by mass, 0 to 120 minutes, FIG. 4
Description: For the single peptide, tandem peptide, and tandem mutated peptide of MSCPP106 shown below in Table 2, the degradation resistance in human plasma was investigated. In Table 2, “tandem MSCPP106” describes a peptide composed of sequence containing two repeated amino acid sequences for MSCPP106 linked via a glycine residue spacer. Further, “tandem mut MSCPP106” describes a peptide composed of a sequence in which the cysteine residues in the amino acid sequence of tandem MSCPP106 have been methylated (mC).
Each of the above peptides was added to human plasma with a concentration of 50% by mass, the mixture was then sampled immediately after starting the degradation test (0 minutes), and then after 5 minutes, after 10 minutes, after 20 minutes, after 30 minutes, after 60 minutes and after 120 minutes, and each sample was analyzed by MALDI-TOFMS (Matrix Assisted Laser Desorption/Ionization-Time of Flight Mass Spectrometry). The ratio of the mass of the retained peptide that had not degraded at each of the sampling points from the start of the test, relative to the mass of the peptide (100% by mass) at the start of the test was calculated and graphed (see FIG. 4).

[5] = tested on: human mesenchymal stem cells (hMSC), line UE6E7T-3; experiment: Penetration of MSCPP-EGFPHIS fusion peptides into hMSC (fluorescence microscopy); type: cell-based; conditions: MSCPP-EGFPHIS fusion peptide, cultured four hours, FIG. 1
Description: Using an independently prepared 9-amino acid residue peptide as a phenotype linked via puromycin to a protein-RNA chimeric random peptide library (in vitro virus library; IVVL) having an mRNA coding sequence as the corresponding genotype, a conventional IVV (in vitro virus) method was used with human mesenchymal stem cells (hMSC) as the absorption target cells to repeat a reaction cycle in a culture system, thus isolating 81 types of peptide having penetration into mesenchymal stem cells (mesenchymal stem cell-penetrating peptide; MSCPP).
Next, fusion peptides (having a His tag formed from six histidine residues at the C-terminus of the fusion peptide) of each of the 81 isolated MSCPP and EGFP (excitation wavelength: 488 nm, fluorescence wavelength: 509 nm) (MSCPP-EGFPHIS) were produced. The penetration properties into hMSC were evaluated for each of the MSCPP-EGFPHIS. Cells of the hMSC line UE6E7T-3 were used as the hMSC. An RPMI 1640 medium containing 10% FBS was used as the medium. The UE6E7T-3 cells were inoculated into a 96-well plate, medium containing each MSCPP-EGFPHIS (5 μL of fusion peptide solution and 50 μL of medium per well) was added, and the mixtures were cultured for four hours. Following culturing, the cells were inspected under a fluorescence microscope. In FIG. 1, “EGFPHIS” represents EGFP having a His tag formed from six histidine residues at the C-terminus, but not being fused with an MSCPP peptide. Further, “Poly-r9” (9-residue continuous D-arginine) is a non-selective membrane-permeable peptide that is currently widely used.

BxPC3 cells = experiment: Cell selectivity of FITC-labelled peptides: penetration into BxPC3 cells; type: cell-based, human; conditions: FITC-labelled peptide 4 μM, four hours, FIG. 2
Procedure: (§1) Among the peptides identified in Example 1, the four peptides MSCPP33, 48, 49 and 106, Poly-r9 as a positive control and MSCPP22 as a negative control were synthesized with an FITC (fluorescein isothiocyanate) (excitation wavelength: 495 nm, fluorescence wavelength: 520 nm) label, and then subjected to a hydrochloride treatment. These peptides were each obtained via contract synthesis by Sigma-Aldrich Japan (Genosis division). The MSCPP33 was dissolved in 20% DMSO. The MSCPP48 developed a precipitate following thawing of the frozen state, and was therefore subjected to a sonication treatment prior to use. The MSCPP49 and MSCPP106 were dissolved in water prior to use.
(§2) Subsequently, the penetration of each peptide into hMSC, normal human dermal fibroblasts (NHDF), and BxPC3 cells, which are an established cell line derived from human pancreatic adenocarcinoma, was confirmed. […] Following culturing, each of the cells was subjected to nuclear staining with Hoechst 33342 (excitation wavelength: 352 nm, fluorescence wavelength: 461 nm), and was then observed using a phase difference/fluorescence microscope. In FIG. 2, the images shown on the left side are FITC fluorescence images, and the images shown on the right side are merged images of the fluorescence image and the phase difference microscope image.

[6] = tested on: normal human dermal fibroblasts (NHDF); experiment: Cell selectivity of FITC-labelled peptides: penetration into NHDF; type: cell-based; conditions: FITC-labelled peptide 4 μM, four hours, FIG. 2
Procedure: as §1, §2

hMSC [7] = experiment: Cell selectivity of FITC-labelled peptides: penetration into hMSC; type: cell-based, human; conditions: FITC-labelled peptide 4 μM, four hours, FIG. 2
Procedure: as §1
Subsequently, the penetration of each peptide into hMSC, normal human dermal fibroblasts (NHDF), and BxPC3 cells, which are an established cell line derived from human pancreatic adenocarcinoma, was confirmed. In the case of the hMSC, cells that had been inoculated into a 24-well plate at 4×10^4 cells/well and then cultured for 24 hours in an MSC medium were used. In the case of the NHDF and BxPC3 cells, cells that had been inoculated into a 24-well plate at 4×10^4 cells/well and then cultured for 24 hours in an RPMI 1640 medium containing 10% FBS were used. Mediums (RPMI 1640 medium containing 10% FBS) containing 4 μM of each of the peptides were then added to each of the cells and cultured for four hours. Following culturing, each of the cells was subjected to nuclear staining with Hoechst 33342 (excitation wavelength: 352 nm, fluorescence wavelength: 461 nm), and was then observed using a phase difference/fluorescence microscope. In FIG. 2, the images shown on the left side are FITC fluorescence images, and the images shown on the right side are merged images of the fluorescence image and the phase difference microscope image.

Row | Molecule | degradation resistance in human plasma [4] | penetration into human bone marrow-derived mesenchymal stem cells (hMSC) [5] | absorption into hMSC (hMSC [7]) | other results
1 | CC(C)C[C@H](NC(=O)[C@H](Cc1c[nH]cn1)NC(=O)[C@H](CCCNC(=N)N)NC(=O)[C@H](Cc1ccccc1)NC(=O)[C@H](CC(C)C)NC(=O)[C@H](CCC(=O)O)NC(=O)[C@H](C)NC(=O)[C@H](CS)NC(=O)[C@H](CCCCN)NC(=O)CNC(=O)[C@H](CC(C)C)NC(=O)[C@H](Cc1c[nH]cn1)NC(=O)[C@H](CCCNC(=N)N)NC(=O)[C@H](Cc1ccccc1)NC(=O)[C@H](CC(C)C)NC(=O)[C@H](CCC(=O)O)NC(=O)[C@H](C)NC(=O)[C@H](CS)NC(=O)[C@@H](N)CCCCN)C(=O)O [tandem MSCPP106, KCAELFRHL-G-KCAELFRHL] (H-KCAELFRHLGKCAELFRHL-OH; N-terminus and C-terminus assumed) | excellent degradation resistance compared with the single MSCPP106 |  |  | resistance to intracellular digestion (degradation) (hMSC [1]): at least 24 hours; absorption into cancer stroma, comparison of peptides ([2]; FIG. 9B): even better absorption into cancer stroma than tandem mut MSCPP106; absorption into hMSC-derived hCAF and mouse MSC-derived CAF ([2]; FIG. 9C): excellent absorption into both forms of CAF; absorption into the CAF of the cancer stroma [3]: selective absorption
2 | CSC[C@H](NC(=O)[C@H](CCCCN)NC(=O)CNC(=O)[C@H](CC(C)C)NC(=O)[C@H](Cc1c[nH]cn1)NC(=O)[C@H](CCCNC(=N)N)NC(=O)[C@H](Cc1ccccc1)NC(=O)[C@H](CC(C)C)NC(=O)[C@H](CCC(=O)O)NC(=O)[C@H](C)NC(=O)[C@H](CSC)NC(=O)[C@@H](N)CCCCN)C(=O)N[C@@H](C)C(=O)N[C@@H](CCC(=O)O)C(=O)N[C@@H](CC(C)C)C(=O)N[C@@H](Cc1ccccc1)C(=O)N[C@@H](CCCNC(=N)N)C(=O)N[C@@H](Cc1c[nH]cn1)C(=O)N[C@@H](CC(C)C)C(=O)O [tandem mut MSCPP106, KmCAELFRHL-G-KmCAELFRHL] (H-KC(Me)AELFRHLGKC(Me)AELFRHL-OH; N-terminus and C-terminus assumed) | excellent degradation resistance compared with the single MSCPP106 |  |  | 
3 | KCAELFRHL [MSCPP106] |  | exhibited penetration | high absorption and fixed selective absorption; also recorded: efficient absorption | fluorescence observed in hMSC [5]: Particularly strong fluorescence; absorption into the pancreatic cancer cells BxPC3 (BxPC3 cells): low absorption; absorption into NHDF [6]: lower absorption into NHDF compared with the absorption into hMSC
4 | RRWMQWPWH [MSCPP49] |  | exhibited penetration | high absorption and fixed selective absorption | 
5 | RTHPVWSRT [MSCPP48] |  | exhibited penetration | high absorption and fixed selective absorption | 
6 | WPPLQRWRN [MSCPP33] |  | exhibited penetration | high absorption and fixed selective absorption | 
